The values below come from US4843087A (priority 1986, dated 1989).

Values after ≈ are worked out from the molar mass of the structure shown.

For this assay, the system named is human rhinovirus (HRV) serotypes. Put plainly: microbe, parasite or virus in culture. Type of assay: cell-based. Conditions: for MIC50: read-out: Rhinovirus MIC50; for IC (MIC80 of serotype panel): read-out: Rhinovirus MIC80.

For `Cc1cc(CCCCCCCOc2ccc(C3=NC(C)CO3)cc2Cl)on1` (stereo not drawn) [17(b), 5-{7-[2-Chloro-4-(4,5-dihydro-4-methyl-2-oxazolyl)phenoxy]heptyl}-3-methylisoxazole], the MIC50 is 0.89 µg/mL (≈ 2.28 µM) and the IC (MIC80 of serotype panel) amounted to 26 µg/mL.
For `Cc1cc(CCCCCCCCOc2ccc(C3=NCCO3)cc2)on1` [18(b), 5-{8-[4-(4,5-Dihydro-2-oxazolyl)phenoxy]octyl}-3-methylisoxazole], in that order: 1.75 µg/mL (≈ 4.91 µM) and 2.1 µg/mL.
For `Cc1cc(CCCCCCCOc2cccc(C3=NCCO3)c2)on1` [26(b), 5-{7-[3-(4,5-Dihydro-2-oxazolyl)phenoxy]heptyl}-3-methylisoxazole], in that order: 0.94 µg/mL (≈ 2.75 µM) and 1.12 µg/mL.
`Cc1cc(CCCCCCCCOc2ccc(C3=NC(C)CO3)cc2Cl)on1` (stereo not drawn) [27(b)]: the MIC50 came to 0.405 µg/mL (≈ 1 µM) and the IC (MIC80 of serotype panel) turned out to be 25.8 µg/mL.
For `Cc1cc(CCCCCOc2c(C)cc(-c3nc(C)c(C)o3)cc2C)on1` [118(c), 5-{5-[4-(4,5-Dimethyl-2-oxazolyl)-2,6-dimethylphenoxy]pentyl}-3-methylisoxazole], in that order: 0.37 µg/mL (≈ 1 µM) and 0.84 µg/mL.
On to `OCCOCOCc1cc(CCCCCOc2c(Cl)cc(C3=NCCO3)cc2Cl)on1` [149(b), 5-{5-[2,6-Dichloro-4-(4,5-dihydro-2-oxazolyl)phenoxy]pentyl}-3-isoxazolylmethoxymethoxyethanol], for which the MIC50 is 0.13 µg/mL (≈ 0.275 µM) and the IC (MIC80 of serotype panel) was 1.1 µg/mL.
Regarding `Cc1cc(CCCCCOc2c(Cl)cc(C3=NCCO3)cc2Cl)sn1` [150(b), 2-{3,5-Dichloro-4-[(5-(3-methyl-5-isothiazolyl)pentyl)oxy]phenyl}-4,5-dihydro-oxazole], the MIC50 was 0.12 µg/mL (≈ 0.3 µM) and the IC (MIC80 of serotype panel) is 0.35 µg/mL.
On to `Cc1cc(CCCCCOc2c(Cl)cc(C3=NCCO3)cc2C(F)(F)F)on1` [155(c), 5-{5-[2-Chloro-4-(4,5-dihydro-2-oxazolyl)-6-(trifluoromethyl)phenoxy]pentyl}-3-methylisoxazole], for which the MIC50 stood at 0.11 µg/mL (≈ 0.264 µM) and the IC (MIC80 of serotype panel) amounted to 0.56 µg/mL.
Turning to `Cc1cc(CCCCCOc2c(Cl)cc(C(=O)NCCCCl)cc2Cl)on1` [156(a), 3,5-Dichloro-N-(3-chloropropyl)-4-{[5-(3-methyl-5-isoxazolyl)pentyl]oxy}benzamide], the MIC50 is 0.795 µg/mL (≈ 1.83 µM) and the IC (MIC80 of serotype panel) amounted to 99 µg/mL.
With `Cc1cc(CCCCCOc2c(Cl)cc(C3=NCCCO3)cc2Cl)on1` [156(b)], the MIC50 was 0.705 µg/mL (≈ 1.77 µM) and the IC (MIC80 of serotype panel) turned out to be 28.6 µg/mL.
For `Cc1cc(CCCCCCCOc2ccc(C3=N[C@@H](C)CO3)cc2)on1` [Example 4, (-)-5-{7-[4-(4,5-Dihydro-4-methyl-2oxazolyl)phenoxy]heptyl}-3-methylisoxazole], in that order: 0.025 µg/mL (≈ 0.0701 µM) and 0.03 µg/mL.
Consider `Cc1cc(CCCCCCCOc2ccc(C3=NC(C)(C)CO3)cc2)on1` [Example 5, 5-{7-[4-(4,5-Dihydro-4,4-dimethyl-2oxazolyl)phenoxy]heptyl}-3-methylisoxazole], for which the MIC50 was determined as 1.3 µg/mL (≈ 3.51 µM) and the IC (MIC80 of serotype panel) was 99 µg/mL.
For `Cc1cc(CCCCCCCOc2ccc(C3=NCC(CO)O3)cc2)on1` (stereo not drawn) [Example 23, 5-{7-[4-(4,5-Dihydro-5-hydroxymethyl-2-oxazolyl)phenoxy]heptyl}-3-methylisoxazole], in that order: 1.55 µg/mL (≈ 4.16 µM) and 2.9 µg/mL.
For `Cc1cc(CCCCCCCOc2ccc(C3=NCC(CCl)O3)cc2)on1` (stereo not drawn) [Example 39, 5-{7-[4-(5-Choromethyl-4,5-dihydro-2-oxazolyl)phenoxy]heptyl}-3-methylisoxazole], in that order: 0.87 µg/mL (≈ 2.23 µM) and 99 µg/mL.
For `COCC1CN=C(c2ccc(OCCCCCCCc3cc(C)no3)cc2)O1` (stereo not drawn) [Example 40, 5-{7-[4-(4,5-Dihydro-5-methoxymethyl-2-oxazolyl)phenoxy]heptyl}-3-methylisoxazole], in that order: 0.535 µg/mL (≈ 1.38 µM) and 99 µg/mL.
With `Cc1cc(CCC=CCOc2ccc(C3=NCCO3)cc2)on1` [Example 55, 5-{5-[4-(4,5-Dihydro-2-oxazolyl)phenoxy]-3-pentenyl}-3-methylisoxazole], the MIC50 is 49.6 µg/mL (≈ 159 µM) and the IC (MIC80 of serotype panel) worked out at 99 µg/mL.
`Cc1cc(CCCCCOc2ccc(C3=NC(C)(C)CO3)cc2Cl)on1` [Example 57, 5-{5-[2-Chloro-4-(4,5-dihydro-4,4-dimethyl-2-oxazolyl)phenoxy]pentyl}-3-methylisoxazole]: the MIC50 was determined as 50.1 µg/mL (≈ 133 µM) and the IC (MIC80 of serotype panel) turned out to be 99 µg/mL.
With `Cc1cc(CCCCOc2ccc(C3=NC(C)CO3)cc2Cl)on1` (stereo not drawn) [Example 65, 5-{4-[2-Chloro-4-(4,5-dihydro-4-methyl-2-oxazolyl)phenoxy]butyl}-3-methylisoxazole], the MIC50 was 0.26 µg/mL (≈ 0.745 µM) and the IC (MIC80 of serotype panel) was 0.45 µg/mL.
As for `Cc1cc(CCCCOc2ccc(C3=NC(C)(C)CO3)cc2Cl)on1` [Example 66, 5-{4-[2-Chloro-4-(4,5-dihydro-4,4-dimethyl-2-oxazolyl)phenoxy]butyl}-3-methylisoxazole], the MIC50 is 0.78 µg/mL (≈ 2.15 µM) and the IC (MIC80 of serotype panel) worked out at 99 µg/mL.
For `Cc1cc(CCCCCOc2ccc(C3=NCCO3)c(Cl)c2Cl)on1` [Example 72, 5-{5-[2,3-Dichloro-4-(4,5-dihydro-2-oxazolyl)phenoxy]pentyl}-3-methylisoxazole], in that order: 0.27 µg/mL (≈ 0.704 µM) and 0.69 µg/mL.
As for `Cc1cc(CCCCCOc2ccc(C3=NCCO3)cc2C(C)(C)C)on1` [Example 76, 5-{5-[4-(4,5-Dihydro-2-oxazolyl)-2-(1,1-dimethylethyl)phenoxy]pentyl}-3-methylisoxazole], the MIC50 was 50.1 µg/mL (≈ 135 µM) and the IC (MIC80 of serotype panel) came out at 99 µg/mL.
For `Cc1cc(CCCCCOc2ccc(-c3nc(C)c(C)o3)cc2C(F)(F)F)on1` [Example 91, 5-{5-[4-(4,5-Dimethyl-2-oxazolyl)-2-trifluoromethylphenoxy]pentyl}-3-methylisoxazole], in that order: 0.75 µg/mL (≈ 1.84 µM) and 1.4 µg/mL.
For `Cc1cc(CCCC(C)Oc2c(Cl)cc(C3=NCCO3)cc2Cl)on1` (stereo not drawn) [Example 110, 5-{4-[2,6-Dichloro-4-(4,5-dihydro-2-oxazolyl)phenoxy]pentyl}-3-methylisoxazole], in that order: 0.24 µg/mL (≈ 0.626 µM) and 0.64 µg/mL.
Regarding `Cc1cc(CC/C=C\COc2c(Cl)cc(C3=NCCO3)cc2Cl)on1` [Example 112, 5-{5-[2,6-Dichloro-4-(4,5-dihydro-2-oxazolyl)phenoxy]-3-pentenyl}-3-methylisoxazole (Z-isomer)], the MIC50 was found to be 0.079 µg/mL (≈ 0.207 µM) and the IC (MIC80 of serotype panel) was determined as 0.74 µg/mL.
Consider `Cc1cc(CCCCOc2c(Cl)cc(-c3nc(C)c(C)o3)cc2Cl)on1` [Example 120, 5-{4-[2,6-Dichloro-4-(4,5-dimethyl-2-oxazolyl)phenoxy]butyl}-3-methylisoxazole], for which the MIC50 came out at 0.16 µg/mL (≈ 0.405 µM) and the IC (MIC80 of serotype panel) was found to be 0.67 µg/mL.
For `Cc1cc(CCCCCOc2ccc(C3=N[C@@H](C)CO3)cc2)on1` [Example 121, (S)-5-{5-[4-(4,5-Dihydro-4-methyl-2-oxazolyl)phenoxy]pentyl}-3-methylisoxazole], in that order: 0.09 µg/mL (≈ 0.274 µM) and 26 µg/mL.
For `Cc1cc(CCCCCCCOc2ccc(C3=NC[C@H](C)O3)cc2)on1` [Example 122, (S)-5-{7-[4-(4,5-Dihydro-5-methyl-2-oxazolyl)phenoxy]heptyl}-3-methylisoxazole], in that order: 0.24 µg/mL (≈ 0.673 µM) and 50.3 µg/mL.
In the case of `CC[C@H]1COC(c2ccc(OCCCCCCCc3cc(C)no3)cc2)=N1` [Example 124, (S)-5-{7-[4-(4-Ethyl-4,5-dihydro-2oxazolyl)phenoxy]heptyl}-3-methylisoxazole], the MIC50 came to 0.36 µg/mL (≈ 0.972 µM) and the IC (MIC80 of serotype panel) is 2.4 µg/mL.
For `CC[C@@H]1COC(c2ccc(OCCCCCCCc3cc(C)no3)cc2)=N1` [Example 125, (R)-5-{7-[4-(4-Ethyl-4,5-dihydro-2-oxazolyl)phenoxy]heptyl}-3-methylisoxazole], in that order: 0.69 µg/mL (≈ 1.86 µM) and 2.3 µg/mL.
As for `Cc1cc(CCCCCCCOc2ccc(C3=N[C@@H](C(C)C)CO3)cc2)on1` [Example 126, (S)-5-{7-[4-(4,5-Dihydro-4-isopropyl-2-oxazolyl)phenoxy]heptyl}-3-methylisoxazole], the MIC50 stood at 1.23 µg/mL (≈ 3.2 µM) and the IC (MIC80 of serotype panel) was 26.2 µg/mL.
For `Cc1cc(CCCCCCCOc2ccc(C3=N[C@H](C(C)C)CO3)cc2)on1` [Example 127, (R)-5-{7-[4-(4,5-Dihydro-4-isopropyl-2-oxazolyl)phenoxy]heptyl}-3-methylisoxazole], in that order: 0.76 µg/mL (≈ 1.98 µM) and 1.4 µg/mL.
For `CCC[C@H]1COC(c2ccc(OCCCCCCCc3cc(C)no3)cc2)=N1` [Example 128, (S)-5-{7-[4-(4,5-Dihydro-4-propyl-2-oxazolyl)phenoxy]heptyl}-3-methylisoxazole], in that order: 0.245 µg/mL (≈ 0.637 µM) and 27.1 µg/mL.
For `CCC[C@@H]1COC(c2ccc(OCCCCCCCc3cc(C)no3)cc2)=N1` [Example 129, (R)-5-{7-[4-(4,5-Dihydro-4-propyl-2-oxazolyl)phenoxy]heptyl}-3-methylisoxazole], in that order: 1.33 µg/mL (≈ 3.46 µM) and 2.6 µg/mL.
With `CCCC[C@H]1COC(c2ccc(OCCCCCCCc3cc(C)no3)cc2)=N1` [Example 130, (S)-5-{7-[4-(4-Butyl-4,5-dihydro-2-oxazolyl)phenoxy]heptyl}-3-methylisoxazole], the MIC50 was 1.08 µg/mL (≈ 2.71 µM) and the IC (MIC80 of serotype panel) is 2.07 µg/mL.
As to `CCCC[C@@H]1COC(c2ccc(OCCCCCCCc3cc(C)no3)cc2)=N1` [Example 131, (R)-5-{7-[4-(4-Butyl-4,5-dihydro-2-oxazolyl)phenoxy]heptyl}-3-methylisoxazole], the MIC50 was 1.44 µg/mL (≈ 3.61 µM) and the IC (MIC80 of serotype panel) was determined as 2.38 µg/mL.
On to `CCCCCCc1cc(CCOc2ccc(C3=N[C@@H](C)CO3)cc2)on1` [Example 132, (S)-5-{2-[4-(4,5-Dihydro-4-methyl-2-oxazolyl)phenoxy]ethyl}-3-hexylisoxazole], for which the MIC50 stood at 1.02 µg/mL (≈ 2.88 µM) and the IC (MIC80 of serotype panel) came out at 1.9 µg/mL.
